From article PMC5773487, “Harnessing insulin- and leptin-induced oxidation of PTP1B for therapeutic development” (Nature Communications, 2018)

Tests used:
reduced PTP1B = target: T1, reduced PTP1B (Homo sapiens, UniProt P18031); assay: phosphatase activity of reduced PTP1B, DiFMUP substrate; format: biochemical
T1 construct: Purified PTP1B (1–321) (100 nM) was mixed with increasing concentrations of H2O2; 6xHis (C); made in house; host or cells: E. coli BL21 (DE3)-RIL
T1 sequence (P18031 1-321): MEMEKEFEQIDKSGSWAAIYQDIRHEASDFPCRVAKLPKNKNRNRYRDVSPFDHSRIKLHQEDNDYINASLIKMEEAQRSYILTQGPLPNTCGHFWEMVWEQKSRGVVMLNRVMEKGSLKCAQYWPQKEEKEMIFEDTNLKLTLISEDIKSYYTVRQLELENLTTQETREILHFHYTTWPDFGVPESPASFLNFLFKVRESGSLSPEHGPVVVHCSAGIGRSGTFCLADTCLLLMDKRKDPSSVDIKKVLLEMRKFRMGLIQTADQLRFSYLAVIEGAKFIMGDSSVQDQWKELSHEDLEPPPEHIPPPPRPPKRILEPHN
Method: Fig. 4 Identification and characterization of small molecules that mimic the effect of scFv45. a Reversibly oxidized PTP1B (PTP1B-OX) was generated by incubation with H2O2 in vitro, desalted, then assayed (20 nM) in the presence and absence of individual members of the LOPAC library. In the right panel, each dot represents an activity measurement. […] Data are representative of at least two independent experiments (n = 2). b Increasing concentration of sanguinarine was tested against reduced (circle) and oxidized (square) forms of PTP1B, using DiFMUP as substrate. c Increasing concentration of levamisole was tested against reduced (circle) and oxidized (square) PTP1B, using DiFMUP as substrate. d PTP1B-OX (200 nM) was incubated with sanguinarine (25 µM) for 5 min and the complex was diluted 100-fold and the activity was monitored for 120 min continuously. e PTP1B-OX (200 nM) was incubated with levamisole (40 µM) for 5 min and the complex was diluted 100-fold and the activity was monitored for 120 min continuously. f Increasing concentration of chelerythrine, an analog of sanguinarine, was tested against reduced (circle) and oxidized (square) forms of PTP1B, using DiFMUP as substrate. […] Individual data points represent the mean obtained from three separate experiments (n = 3; b–g)
(§1) Purified PTP1B (1–321) (100 nM) was mixed with increasing concentrations of H2O2 (0.05–100 mM) in phosphatase assay buffer (50 mM HEPES, pH 7.0, 100 mM NaCl, 0.1% BSA) at room temperature for 5 min. From this reaction mixture PTP1B (10 nM) was used to monitor phosphatase activity using DiFMUP as the substrate, with or without 5 mM TCEP. Activity of each sample was compared to that of the untreated PTP1B in the presence of 5 mM TCEP.

PTP1B-OX [1] = target: T2, PTP1B-OX (Homo sapiens, UniProt P18031); assay: reduction and reactivation of reversibly oxidized PTP1B by TCEP, DiFMUP substrate; format: biochemical; conditions: complex diluted 100-fold, activity monitored 120 min
T2 construct: Purified PTP1B (1–321) (100 nM) was mixed with increasing concentrations of H2O2; 6xHis (C); made in house; host or cells: E. coli BL21 (DE3)-RIL
T2 sequence (P18031 1-321): T1 sequence (P18031 1-321)

PTP1B-OX [2] = target: T2, PTP1B-OX; assay: as above; format: biochemical; conditions: for restoration of PTP1B-OX activity by TCEP in LOPAC primary screen: compound 10 μM; for IC50: wild-type PTP1B-OX, reactivation by TCEP, DiFMUP substrate, read-out: IC50 against PTP1B-OX
Method: Therefore, our approach has been to adapt this assay, which we used to screen for conformation-sensor scFvs[17], now to screen for small molecules that act through a similar mechanism. Our primary screening assay tested the ability of small molecule inhibitors to antagonize the reduction and reactivation of the oxidized conformation of PTP1B, similar to that of scFv45 (Fig. 4a).
as §1
To screen the LOPAC library against PTP1B-OX, 0.5 μl of 1 mM compound in 100% DMSO was added to 384-well plates, resulting in a final compound concentration of 10 μM for the primary screen. Recombinant PTP1B (100 nM) was reversibly oxidized and inactivated with H2O2 (4 mM). The phosphatase activity was restored by a quick buffer exchange and addition of reducing agent (TCEP). PTP1B-OX was incubated with LOPAC compounds (10 μM) in the assay buffer (50 mM HEPES pH 7.0, 100 mM NaCl, 0.005% Tween, 2 mM EDTA) and the effect of individual compound on stabilizing the reversibly oxidized conformation was assessed by the phosphatase assay under reducing conditions using DiFMUP as substrate. scFv45 was used as positive control.

PKC = conditions: cited from earlier work

Row | SMILES | inhibition of the reduced form of PTP1B (reduced PTP1B) | reversibility of PTP1B-OX inhibition (PTP1B-OX [1]) | restoration of PTP1B-OX activity by TCEP in LOPAC primary screen (PTP1B-OX [2]) | IC50 (PTP1B-OX [2]) [µM] | inhibition of PKC (PKC)
1 | c1ccc([C@H]2CN3CCSC3=N2)cc1 [levamisole] | no effect | reversible | only able to restore enzymatic activity partially | 36 | –
2 | C[n+]1cc2c3c(ccc2c2ccc4cc5c(cc4c21)OCO5)OCO3 [sanguinarine] | no effect | reversible | only able to restore enzymatic activity partially | 25 | not an inhibitor
